Reference: article PMC4746275, “Norfloxacin and N-Donor Mixed-Ligand Copper(II) Complexes: Synthesis, Albumin Interaction, and Anti-Trypanosoma cruzi Activity” (Bioinorganic Chemistry and Applications, 2016)
Where two headings read alike, the source gives them in different places.

Tests used:
[1] = system: bloodstream trypomastigotes (BT) forms of T. cruzi (Y strain); set-up: method as in Martins et al., 2012 [14]; conditions: ref Martins et al., 2012 [14], cited from earlier work; for SI (selective index: ratio between LC50/EC50 values): LC50 on mammalian cardiac cells / EC50 on BT forms; for EC50: mean ± SD, 24 h of incubation at 37°C, Y strain, read-out: EC50 (drug concentration which reduces the number of the parasites by 50%)
[2] = system: bloodstream trypomastigotes (BT) forms of T. cruzi (Y strain); experiment: Trypanocidal analysis in vitro on bloodstream trypomastigotes; assay type: cell-based, Trypanosoma cruzi; conditions: for SI (selective index: ratio between LC50/EC50 values): LC50 on mammalian cardiac cells (24 h) / EC50 on BT forms; for times more active than benznidazole: comparison of EC50 values on bloodstream trypomastigotes; for EC50: mean ± SD, 24 h of incubation at 37°C, Y strain, read-out: EC50 (drug concentration which reduces the number of the parasites by 50%)
Experimental: Y strain of T. cruzi was used throughout the experiments. Bloodstream forms were harvested by heart puncture from T. cruzi-infected Swiss mice at the peak of parasitemia.
For the in vitro analysis on trypomastigotes, the parasites were incubated at 310 K in the presence of increasing doses (0–200 μM) of each compound diluted in Dulbecco's modified Eagle's medium which was supplemented with 5% fetal bovine serum and 1 mM L-glutamine (DMES). After 24 h, death rates were determined by light microscopy through the direct quantification of live parasites using Neubauer chamber, and EC50 values (drug concentration which reduces 50% of the number of live parasites) were then calculated as reported.

[3] = target: T1, human serum albumin (HSA) (Homo sapiens, UniProt P02768); experiment: Quenching of HSA intrinsic fluorescence (Stern-Volmer); assay type: binding; conditions: HSA 4 × 10^−6 mol L^−1, 296 K, pH 7.4; standard error 0.2 × 10^4 L mol^−1; corrected for inner filter effect
T1 construct: purchased Sigma-Aldrich
T1 sequence (P02768 25-609): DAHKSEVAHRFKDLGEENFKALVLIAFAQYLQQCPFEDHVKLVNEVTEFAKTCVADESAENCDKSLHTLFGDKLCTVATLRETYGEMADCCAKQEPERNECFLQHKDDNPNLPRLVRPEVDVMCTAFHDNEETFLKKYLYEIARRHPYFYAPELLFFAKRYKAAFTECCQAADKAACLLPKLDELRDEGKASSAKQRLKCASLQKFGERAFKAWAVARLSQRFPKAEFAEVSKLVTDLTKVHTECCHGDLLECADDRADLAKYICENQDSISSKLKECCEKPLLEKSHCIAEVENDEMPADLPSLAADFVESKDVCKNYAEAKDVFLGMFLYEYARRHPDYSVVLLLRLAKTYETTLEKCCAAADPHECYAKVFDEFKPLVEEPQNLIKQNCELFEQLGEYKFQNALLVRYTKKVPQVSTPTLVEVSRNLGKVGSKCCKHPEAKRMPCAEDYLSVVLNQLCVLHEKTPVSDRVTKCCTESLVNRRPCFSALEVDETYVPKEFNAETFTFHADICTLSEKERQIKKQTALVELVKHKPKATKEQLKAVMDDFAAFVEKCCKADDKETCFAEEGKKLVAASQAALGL
Experimental: (§1) Steady state fluorescence measurements were performed on a Varian-Agilent Cary Eclipse or a PTI QM1 fluorescence system. UV-Vis absorption spectra were obtained with an Agilent diode array spectrophotometer model 8452A. Fluorescence lifetimes were measured using IBH-Horiba-Jobin Yvon TCSPC system. NanoLEDs with 1.0 ns nominal pulse duration and 1 MHz repetition rate were used as light sources for exciting the intrinsic HSA or BSA fluorescence (283 nm) and NOR fluorescence (330 nm).
(§2) Quenching measurements of albumin fluorescence were taken in 3 mL of BSA or HSA (4 × 10^−6 mol L^−1) in phosphate buffer 10 mM at pH 7.4. The albumin solutions were titrated by successive additions of the complex stock solutions. The fluorescence emission spectra of BSA and HSA were measured using an excitation wavelength of 290 nm. Experiments were performed at ambient temperature (296 K) and pH 7.4.
(§3) In this section, the quenching of BSA and HSA fluorescence by Cu(II) ions, Cu(II)-bipy, Cu(II)-phen, and complexes 1 and 2 was monitored. All the UV absorption and emission spectra were registered. The fluorescence decay curves with excitation at 283 nm and emission at 340 nm were obtained in the absence of the quenchers, at an intermediary and at the final quencher concentration. The raw data are available in Supplementary Material available online at http://dx.doi.org/10.1155/2016/5027404. The fluorescence intensity was attenuated by absorption of the incident and emitted light. […] The fluorescence spectra were corrected using the following expression:(2) Fcorr=Fobs10^Aex+Aeml/2, where F corr and F obs are the corrected and observed fluorescence intensity, A ex and A em are the absorbance at the excitation and emission wavelengths, respectively, and ℓ is the optical path in cm.
(§4) Quenching of a fluorophore by a drug can occur by a static or dynamic process. Static or dynamic quenching at a single site can be described by the Stern-Volmer equation [36]:(3) F0/F=1+KSVQ, where F 0 and F are the fluorescence intensities of albumins in the absence and presence of complexes, respectively. [Q] is the quencher concentration, and K SV is the Stern-Volmer quenching constant, which is related to the bimolecular collisional process in dynamic quenching but is the association constant in static quenching. Stern-Volmer constants were obtained for the linear region of the plots (Table 3).

[4] = target: T2, bovine serum albumin (BSA) (Bos taurus, UniProt P02769); experiment: Quenching of BSA intrinsic fluorescence (Stern-Volmer); assay type: binding; conditions: BSA 4 × 10^−6 mol L^−1, 296 K, pH 7.4; standard error 0.2 × 10^4 L mol^−1; corrected for inner filter effect
T2 construct: purchased Sigma-Aldrich
T2 sequence (P02769 25-607): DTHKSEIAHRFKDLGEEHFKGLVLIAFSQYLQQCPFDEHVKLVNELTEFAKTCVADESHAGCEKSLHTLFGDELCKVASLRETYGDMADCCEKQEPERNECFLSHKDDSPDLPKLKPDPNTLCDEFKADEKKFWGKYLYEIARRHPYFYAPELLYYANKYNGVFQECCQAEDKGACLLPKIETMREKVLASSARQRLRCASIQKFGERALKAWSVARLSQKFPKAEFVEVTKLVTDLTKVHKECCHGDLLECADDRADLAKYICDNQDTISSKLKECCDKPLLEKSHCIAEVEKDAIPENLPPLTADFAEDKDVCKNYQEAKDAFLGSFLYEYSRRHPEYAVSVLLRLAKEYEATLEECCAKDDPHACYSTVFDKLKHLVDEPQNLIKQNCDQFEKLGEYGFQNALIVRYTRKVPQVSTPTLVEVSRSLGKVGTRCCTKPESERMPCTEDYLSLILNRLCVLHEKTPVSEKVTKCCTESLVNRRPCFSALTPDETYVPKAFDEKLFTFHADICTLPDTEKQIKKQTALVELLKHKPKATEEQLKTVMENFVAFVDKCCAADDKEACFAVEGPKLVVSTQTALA
Experimental: as §1, §2, §3, §4

Compound	SI (selective index: ratio between LC50/EC50 values) [1]	EC50 [1]	SI (selective index: ratio between LC50/EC50 values) [2]	times more active than benznidazole [2]	EC50 [2]	K SV (Stern-Volmer constant) [3]	K SV (Stern-Volmer constant) [4]	EC50 ([2]; Trypanosoma cruzi)
[Cl][Cu][Cl] [CuCl2]	6	83 ± 3 µM	–	–	–	–	–	–
[CuCl2(phen)(NOR)]·3H2O [complex 2]	–	–	2.68	2-3 times	4.4 ± 1.4 µM	49000 L/mol	37000 L/mol	–
[CuCl2(phen)]	<4	7 ± 5 µM	–	2-3 times	–	51000 L/mol	35000 L/mol	–
[CuCl(bipy)(NOR)]Cl·2H2O [complex 1]	–	–	4	–	16 ± 4 µM	58000 L/mol	30000 L/mol	–
[CuCl2(NOR)]	–	–	0.8	–	78 ± 12 µM	–	–	–
[Cu+2] [Cu(II)]	–	–	–	–	–	29000 L/mol	35000 L/mol	–
O=C(Cn1ccnc1[N+](=O)[O-])NCc1ccccc1 [Benznidazole]	–	–	77	–	–	–	–	13 ± 2 µM
[Cl][Cu][Cl].c1ccc(-c2ccccn2)nc1 [[CuCl2(bipy)]]	4.5	14 ± 7 µM	–	–	–	50000 L/mol	31000 L/mol	–
CCn1cc(C(=O)O)c(=O)c2cc(F)c(N3CCNCC3)cc21 [Norfloxacin, 1-ethyl-6-fluoro-1,4-dihydro-4-oxo-7-(1-piperazinyl)-quinoline-3-carboxylic acid]	–	–	>1.25	–	–	–	–	126 ± 30 µM
